Experimental data: the NIST ThermoML archive (doi:10.1007/s10765-007-0223-x)

Assay: xn = mol fraction of the nth substance listed
Conditions: 101 kPa, Liquid; for speed of sound: Single path-length method

COC(C)(C)C [2-methoxy-2-methylpropane] + c1ccccc1
Conditions	mass density [kg/m3]	speed of sound [m/s]
288.15 K, x1 = 0.052	874.712	1328.4
288.15 K, x1 = 0.111	864.515	1309.5
288.15 K, x1 = 0.202	849.416	1281.7
288.15 K, x1 = 0.303	833.719	1252.5
288.15 K, x1 = 0.397	819.912	1226.5
288.15 K, x1 = 0.5	805.496	1199.1
288.15 K, x1 = 0.596	792.712	1174.8
288.15 K, x1 = 0.698	779.712	1149.4
288.15 K, x1 = 0.791	768.503	1128.2
288.15 K, x1 = 0.902	755.682	1103
288.15 K, x1 = 0.95	750.294	1092.4
288.15 K, x1 = 1	744.861	1083.4
290.65 K, x1 = 0.052	872.067	1316.5
290.65 K, x1 = 0.111	861.888	1297.5
290.65 K, x1 = 0.202	846.799	1269.6
290.65 K, x1 = 0.303	831.129	1240.5
290.65 K, x1 = 0.397	817.328	1214.4
290.65 K, x1 = 0.5	802.92	1187.2
290.65 K, x1 = 0.596	790.137	1163
290.65 K, x1 = 0.698	777.135	1137.7
290.65 K, x1 = 0.791	765.921	1116.4
290.65 K, x1 = 0.902	753.094	1091.2
290.65 K, x1 = 0.95	747.701	1080.6
290.65 K, x1 = 1	742.259	1071.6
293.15 K, x1 = 0.052	869.419	1304.8
293.15 K, x1 = 0.111	859.259	1285.9
293.15 K, x1 = 0.202	844.19	1258
293.15 K, x1 = 0.303	828.533	1228.9
293.15 K, x1 = 0.397	814.742	1202.9
293.15 K, x1 = 0.5	800.338	1175.6
293.15 K, x1 = 0.596	787.557	1151.4
293.15 K, x1 = 0.698	774.552	1126.2
293.15 K, x1 = 0.791	763.334	1104.8
293.15 K, x1 = 0.902	750.497	1079.6
293.15 K, x1 = 0.95	745.1	1069
293.15 K, x1 = 1	739.654	1060
295.65 K, x1 = 0.052	866.766	1293
295.65 K, x1 = 0.111	856.624	1274.2
295.65 K, x1 = 0.202	841.573	1246.3
295.65 K, x1 = 0.303	825.932	1217.3
295.65 K, x1 = 0.397	812.151	1191.3
295.65 K, x1 = 0.5	797.75	1164
295.65 K, x1 = 0.596	784.966	1139.8
295.65 K, x1 = 0.698	771.959	1114.6
295.65 K, x1 = 0.791	760.733	1093.1
295.65 K, x1 = 0.902	747.886	1067.9
295.65 K, x1 = 0.95	742.485	1057.2
295.65 K, x1 = 1	737.036	1048.5
298.15 K, x1 = 0.052	864.111	1281.3
298.15 K, x1 = 0.111	853.986	1262.6
298.15 K, x1 = 0.202	838.954	1234.8
298.15 K, x1 = 0.303	823.323	1205.8
298.15 K, x1 = 0.397	809.552	1179.8
298.15 K, x1 = 0.5	795.155	1152.5
298.15 K, x1 = 0.596	782.366	1128.2
298.15 K, x1 = 0.698	769.356	1103
298.15 K, x1 = 0.791	758.126	1081.5
298.15 K, x1 = 0.902	745.267	1056.2
298.15 K, x1 = 0.95	739.86	1045.5
298.15 K, x1 = 1	734.406	1036.9
300.65 K, x1 = 0.052	861.451	1269.7
300.65 K, x1 = 0.111	851.345	1251
300.65 K, x1 = 0.202	836.329	1223.2
300.65 K, x1 = 0.303	820.71	1194.3
300.65 K, x1 = 0.397	806.945	1168.3
300.65 K, x1 = 0.5	792.548	1141
300.65 K, x1 = 0.596	779.76	1116.7
300.65 K, x1 = 0.698	766.742	1091.5
300.65 K, x1 = 0.791	755.506	1070
300.65 K, x1 = 0.902	742.638	1044.7
300.65 K, x1 = 0.95	737.224	1033.8
300.65 K, x1 = 1	731.766	1025.4
303.15 K, x1 = 0.052	858.785	1258
303.15 K, x1 = 0.111	848.697	1239.5
303.15 K, x1 = 0.202	833.698	1211.7
303.15 K, x1 = 0.303	818.089	1182.8
303.15 K, x1 = 0.397	804.33	1156.9
303.15 K, x1 = 0.5	789.936	1129.6
303.15 K, x1 = 0.596	777.144	1105.2
303.15 K, x1 = 0.698	764.119	1080
303.15 K, x1 = 0.791	752.877	1058.5
303.15 K, x1 = 0.902	739.994	1033.2
303.15 K, x1 = 0.95	734.576	1022.3
303.15 K, x1 = 1	729.112	1013.9
305.65 K, x1 = 0.052	856.117	1246.5
305.65 K, x1 = 0.111	846.045	1228
305.65 K, x1 = 0.202	831.061	1200.3
305.65 K, x1 = 0.303	815.461	1171.4
305.65 K, x1 = 0.397	801.707	1145.5
305.65 K, x1 = 0.5	787.314	1118.2
305.65 K, x1 = 0.596	774.518	1093.8
305.65 K, x1 = 0.698	761.485	1068.6
305.65 K, x1 = 0.791	750.234	1047.1
305.65 K, x1 = 0.902	737.34	1021.7
305.65 K, x1 = 0.95	731.914	1010.9
305.65 K, x1 = 1	726.444	1002.4
308.15 K, x1 = 0.052	853.44	1234.9
308.15 K, x1 = 0.111	843.388	1216.5
308.15 K, x1 = 0.202	828.417	1188.9
308.15 K, x1 = 0.303	812.827	1160
308.15 K, x1 = 0.397	799.075	1134.1
308.15 K, x1 = 0.5	784.683	1106.9
308.15 K, x1 = 0.596	771.88	1082.4
308.15 K, x1 = 0.698	758.841	1057.2
308.15 K, x1 = 0.791	747.582	1035.7
308.15 K, x1 = 0.902	734.673	1010.3
308.15 K, x1 = 0.95	729.241	999.43
308.15 K, x1 = 1	723.763	990.99
310.65 K, x1 = 0.052	850.759	1223.5
310.65 K, x1 = 0.111	840.726	1205.2
310.65 K, x1 = 0.202	825.767	1177.5
310.65 K, x1 = 0.303	810.187	1148.8
310.65 K, x1 = 0.397	796.438	1122.8
310.65 K, x1 = 0.5	782.044	1095.5
310.65 K, x1 = 0.596	769.234	1071.2
310.65 K, x1 = 0.698	756.187	1046
310.65 K, x1 = 0.791	744.918	1024.3
310.65 K, x1 = 0.902	731.995	998.9
310.65 K, x1 = 0.95	726.556	988.05
310.65 K, x1 = 1	721.069	979.62
313.15 K, x1 = 0.052	848.07	1212
313.15 K, x1 = 0.111	838.056	1193.8
313.15 K, x1 = 0.202	823.111	1166.3
313.15 K, x1 = 0.303	807.533	1137.4
313.15 K, x1 = 0.397	793.792	1111.5
313.15 K, x1 = 0.5	779.391	1084.2
313.15 K, x1 = 0.596	766.575	1059.8
313.15 K, x1 = 0.698	753.517	1034.6
313.15 K, x1 = 0.791	742.24	1013
313.15 K, x1 = 0.902	729.301	987.61
313.15 K, x1 = 0.95	723.852	976.7
313.15 K, x1 = 1	718.357	968.16
315.65 K, x1 = 0.052	845.378	1200.6
315.65 K, x1 = 0.111	835.381	1182.5
315.65 K, x1 = 0.202	820.447	1155
315.65 K, x1 = 0.303	804.877	1126.2
315.65 K, x1 = 0.397	791.135	1100.3
315.65 K, x1 = 0.5	776.733	1073
315.65 K, x1 = 0.596	763.908	1048.6
315.65 K, x1 = 0.698	750.84	1023.3
315.65 K, x1 = 0.791	739.55	1001.7
315.65 K, x1 = 0.902	726.593	976.23
315.65 K, x1 = 0.95	721.138	965.31
315.65 K, x1 = 1	715.636	956.8
318.15 K, x1 = 0.052	842.684	1189.4
318.15 K, x1 = 0.111	832.703	1171.3
318.15 K, x1 = 0.202	817.778	1143.8
318.15 K, x1 = 0.303	802.213	1115
318.15 K, x1 = 0.397	788.472	1089.2
318.15 K, x1 = 0.5	774.062	1061.8
318.15 K, x1 = 0.596	761.226	1037.4
318.15 K, x1 = 0.698	748.147	1012.1
318.15 K, x1 = 0.791	736.847	990.48
318.15 K, x1 = 0.902	723.87	964.92
320.65 K, x1 = 0.052	840.006	1178.4
320.65 K, x1 = 0.111	830.019	1160.1
320.65 K, x1 = 0.202	815.102	1132.6
320.65 K, x1 = 0.303	799.541	1103.9
320.65 K, x1 = 0.397	785.8	1078.1
320.65 K, x1 = 0.5	771.341	1050.4
320.65 K, x1 = 0.596	758.536	1026.2
320.65 K, x1 = 0.698	745.444	1001
320.65 K, x1 = 0.791	734.13	979.25
320.65 K, x1 = 0.902	721.133	953.72
323.15 K, x1 = 0.052	837.364	1168
323.15 K, x1 = 0.111	827.342	1149.2
323.15 K, x1 = 0.202	812.432	1121.7
323.15 K, x1 = 0.303	796.876	1093
323.15 K, x1 = 0.397	783.138	1067.2
323.15 K, x1 = 0.5	768.725	1040
323.15 K, x1 = 0.596	755.841	1015.2
323.15 K, x1 = 0.698	742.756	990.11
323.15 K, x1 = 0.791	731.411	968.17
323.15 K, x1 = 0.902	718.4	942.69
323.15 K, x1 = 0.95	712.917	931.73
323.15 K, x1 = 1	707.381	922.97
